Values of other authors in US8298573B2, “Stable sterile filterable liposomal encapsulated taxane and other antineoplastic drugs” (priority 2003, dated 2012).

In the case of CC(=O)O[C@H]1C(=O)[C@@]2(C)[C@H]([C@H](OC(=O)c3ccccc3)[C@]3(O)C[C@H](OC(=O)[C@H](O)[C@@H](NC(=O)c4ccccc4)c4ccccc4)C(C)=C1C3(C)C)[C@]1(OC(C)=O)CO[C@@H]1C[C@@H]2O [paclitaxel], the solubility in water is given as “extremely low”.
